Laboratory results as given in article PMC7589491, “Biomimetic Artificial Membrane Permeability Assay over Franz Cell Apparatus Using BCS Model Drugs” (Pharmaceutics, 2020).
Like-named read-outs stand apart in the source and are kept apart here.

Tests used:
Caco-2 cells = details: cited from earlier work
[1] = cited from earlier work
[2] = parameters: method as in PMID 25840123; details: cited from earlier work
[3] = cited from earlier work; remark: listed apart in the source
[4] = Franz–PAMPA permeation study (lipid-impregnated artificial membrane on Franz cells); details: for Papp at 12 h, 10 mg/mL: PAMPA; for Permeability classification in Franz–PAMPA: metoprolol as high permeability marker, best fit method
[5] = pH 7.4; cited from earlier work
[6] = Dose number (D0) in donor compartment; format: physicochemical; details: 10 mg/mL in donor, not under infinite dose conditions
[7] = fraction of dose absorbed in humans; cited from earlier work
[8] = cited from earlier work; remark: listed apart in the source
in vitro = details: PAMPA
[9] = Permeation across non-impregnated membrane on Franz cells; format: in vitro ADME; details: PAMPA, pH 7.4; as worded; read-out: Papp non-impregnated one across Franz–PAMPA
[10] = pH 7.4, Papp Franz–PAMPA, PBS pH 7.4, 37 °C, 500 rpm, 12 h, n = 3, best fit of linear portion (sink equation)
[11] = pH 7.4, Papp Non-Sink Arthurson, Franz–PAMPA data, non-sink equation
[12] = pH 7.4, Papp Non-Sink Arthurson
[13] = pH 7.4, Papp across Franz–PAMPA

SMILES	Papp Caco-2 (Caco-2 cells)	Papp Corti [1]	Log D pH 7.4 [3]	Papp at 12 h, 10 mg/mL [4, 10]	Papp at 12 h, 10 mg/mL [4, 11]	Papp PAMPA pH 7,4 [5]	D0 [6]	Fa(%) [7]	Intrinsic Solubility [8]	further results
Nc1nc2c(ncn2COCCO)c(=O)[nH]1 [Acyclovir]	0.3 ×10⁻⁶ cm/s	9.1 ×10⁻⁶ cm/s	−1.7	0.4 ×10⁻⁶ cm/s	0.4 ×10⁻⁶ cm/s					Papp Permeapad™ [2]: 7.9 ×10⁻⁶ cm/s; LogP [3]: −1.7
CC1(C)S[C@@H]2[C@H](NC(=O)[C@H](N)c3ccc(O)cc3)C(=O)N2[C@H]1C(=O)O [Amoxicillin]	0.8 ×10⁻⁶ cm/s			0.85 ×10⁻⁶ cm/s	0.07 ×10⁻⁶ cm/s	1.5 × 10^−6 cm/s				LogP [3]: 0.9
CC(C)NCC(O)COc1ccc(CC(N)=O)cc1 (stereo not shown) [Atenolol]							≤ 0.01			
Cn1c(=O)c2c(ncn2C)n(C)c1=O [Caffeine]		41.1 ×10⁻⁶ cm/s		36.2 ×10⁻⁶ cm/s	53.3 ×10⁻⁶ cm/s	10.8 × 10^−6 cm/s	≤ 0.01			Papp Permeapad™ [2]: 20.4 ×10⁻⁶ cm/s; Permeability classification in Franz–PAMPA [4]: highly permeable
NC(=O)N1c2ccccc2C=Cc2ccccc21 [Carbamazepine]				5.97 ×10⁻⁶ cm/s				100%	0.12 mg/mL	
CN/C(=N/CCSCc1nc[nH]c1C)NC#N [Cimetidine]	0.7 ×10⁻⁶ cm/s		0.4	35.6 ×10⁻⁶ cm/s	31 ×10⁻⁶ cm/s			93%	6.0 mg/mL	Permeability classification in Franz–PAMPA [4]: highly permeable
O=C(O)Cc1ccccc1Nc1c(Cl)cccc1Cl [Diclofenac]			1.2					100%		Permeability classification in Franz–PAMPA: highly permeable; Papp at 12 h, 10 mg/mL (in vitro; pH 7.4, Papp Franz–PAMPA): 68.1 ×10⁻⁶ cm/s; Papp at 12 h, 10 mg/mL (in vitro; [12]): 105 ×10⁻⁶ cm/s
NS(=O)(=O)c1cc2c(cc1Cl)NCNS2(=O)=O [Hydrochlorothiazide]	0.5 ×10⁻⁶ cm/s	31 ×10⁻⁶ cm/s				0.1 × 10^−6 cm/s		70%		Papp at 12 h, 10 mg/mL (in vitro; pH 7.4, Papp Franz–PAMPA): 2.74 ×10⁻⁶ cm/s; Papp at 12 h, 10 mg/mL (in vitro; [12]): 2.7 ×10⁻⁶ cm/s
CC(C)Cc1ccc(C(C)C(=O)O)cc1 (stereo not shown) [Ibuprofen]			0.7			6.8 × 10^−6 cm/s		93%	0.01 mg/mL	Papp Permeapad™ [2]: 16.6 ×10⁻⁶ cm/s; LogP [3]: 3.1
CC(C(=O)O)c1cccc(C(=O)c2ccccc2)c1 (stereo not shown) [Ketoprofen]	20.1 ×10⁻⁶ cm/s	42.7 ×10⁻⁶ cm/s		12.1 ×10⁻⁶ cm/s		16.7 × 10^−6 cm/s				
OC[C@@H](O)[C@@H](O)[C@H](O)[C@H](O)CO [Mannitol]										Papp at 10 mg/mL [9]: 0.32 ×10⁻⁶ cm/s; Papp at 12 h, 10 mg/mL [4, 13]: 0.32 ×10⁻⁶ cm/s
C[C@](N)(Cc1ccc(O)c(O)c1)C(=O)O [Methyldopa]	0.2 ×10⁻⁶ cm/s	3.2 ×10⁻⁶ cm/s						41%		LogP [3]: 0.4
COCCc1ccc(OCC(O)CNC(C)C)cc1 (stereo not shown) [Metoprolol]	23.7 ×10⁻⁶ cm/s	48.1 ×10⁻⁶ cm/s		15.8 ×10⁻⁶ cm/s	59 ×10⁻⁶ cm/s	3.5 × 10^−6 cm/s	≤ 0.01		1000.0 mg/mL	Papp at 10 mg/mL [9]: 16.1 ×10⁻⁶ cm/s; Papp Permeapad™ [2]: 1 ×10⁻⁶ cm/s; Papp at 12 h, 10 mg/mL [4, 13]: 16.1 ×10⁻⁶ cm/s
COc1ccc2cc([C@H](C)C(=O)O)ccc2c1 [Naproxen]							≤ 0.01			
CN1C(C(=O)Nc2ccccn2)=C(O)c2ccccc2S1(=O)=O [Piroxicam]	35.6 ×10⁻⁶ cm/s		−0.07	11 ×10⁻⁶ cm/s	9.6 ×10⁻⁶ cm/s	8.2 × 10^−6 cm/s		100%	0.11 mg/mL	Permeability classification in Franz–PAMPA [4]: low permeability drugs
CC(C)NCC(O)COc1cccc2ccccc12 (stereo not shown) [Propranolol]	41.9 ×10⁻⁶ cm/s	39.7 ×10⁻⁶ cm/s		33.1 ×10⁻⁶ cm/s	88.4 ×10⁻⁶ cm/s	23.5 × 10^−6 cm/s	≤ 0.01		33.0 mg/mL	Permeability classification in Franz–PAMPA [4]: highly permeable
CNC(=C[N+](=O)[O-])NCCSCc1ccc(CN(C)C)o1 [Ranitidine]	0.5 ×10⁻⁶ cm/s	21.5 ×10⁻⁶ cm/s	−0.3	6.81 ×10⁻⁶ cm/s	5.3 ×10⁻⁶ cm/s	0.5 × 10^−6 cm/s	≤ 0.01		100.0 mg/mL	
Cn1c(=O)c2[nH]cnc2n(C)c1=O [Theophylline]			−0.05						8.33 mg/mL	
COc1cc(Cc2cnc(N)nc2N)cc(OC)c1OC [Trimethoprim]	83 ×10⁻⁶ cm/s	45.5 ×10⁻⁶ cm/s		6.61 ×10⁻⁶ cm/s	7.7 ×10⁻⁶ cm/s	5.0 × 10^−6 cm/s		97%		
